Species: Rattus norvegicus
Assay: DrugMatrix - Regimen: Daily Repeat
Type: toxicity, organism-based, Sprague-Dawley
Design: regimen Daily Repeat, gender Male, age 6-8 weeks
Conditions: in vivo, po, route oral GAVAGE, […]; for POTASSIUM / SODIUM / TOTAL BILIRUBIN / TOTAL PROTEIN / URIC ACID / ALANINE AMINOTRANSFERASE / ALBUMIN / ALKALINE PHOSPHATASE / ASPARTATE AMINOTRANSFERASE / BLOOD UREA NITROGEN / CARBON DIOXIDE / CHLORIDE / CHOLESTEROL / CREATINE PHOSPHOKINASE / CREATININE / GLUCOSE / LIPASE / PHOSPHORUS / LACTATE DEHYDROGENASE: tissue Plasma; for ABSOLUTE BASOPHIL / ABSOLUTE EOSINOPHIL / ABSOLUTE LYMPHOCYTE / ABSOLUTE MONOCYTE / BASOPHIL / EOSINOPHIL / ERYTHROCYTE COUNT / HEMATOCRIT / HEMOGLOBIN / LEUKOCYTE COUNT / LYMPHOCYTE / MEAN CORPUSCULAR HEMOGLOBIN / MEAN CORPUSCULAR HEMOGLOBIN CONCENTRATION / MEAN CORPUSCULAR VOLUME / MONOCYTE / NEUTROPHIL / PLATELET COUNT: tissue Blood
[1] = 0 mg/kg, 72 h, dose level Control, time 3 day
[2] = 0 mg/kg, 120 h, dose level Control, time 5 day
[3] = 0 mg/kg, dose level Control, time 14 day
[4] = 15 mg/kg, 72 h, dose level High, time 3 day
[5] = 15 mg/kg, 120 h, dose level High, time 5 day
[6] = 15 mg/kg, dose level High, time 14 day

CC(CCc1ccc(O)cc1)NCCc1ccc(O)c(O)c1 (configuration not stated) [DOBUTAMINE]
POTASSIUM [1]: 6.13 MEQ/L | SODIUM [1]: 145 MEQ/L | TOTAL BILIRUBIN [1]: 0.43 mg/dL | TOTAL PROTEIN [1]: 6.7 G/DL | URIC ACID [1]: 0.83 mg/dL | ABSOLUTE BASOPHIL [2]: 33.3 cells/µL | ABSOLUTE EOSINOPHIL [2]: 56.7 cells/µL | ABSOLUTE LYMPHOCYTE [2]: 9220 cells/µL | ABSOLUTE MONOCYTE [2]: 230 cells/µL | BASOPHIL [2]: 0.3% | EOSINOPHIL [2]: 0.5% | ERYTHROCYTE COUNT [2]: 6.62 x10E6/uL | HEMATOCRIT [2]: 46.43% | HEMOGLOBIN [2]: 14.3 G/DL | LEUKOCYTE COUNT [2]: 10.96 x10E3/uL | LYMPHOCYTE [2]: 83.83% | MEAN CORPUSCULAR HEMOGLOBIN [2]: 21.57 pg | MEAN CORPUSCULAR HEMOGLOBIN CONCENTRATION [2]: 30.77 G/DL | MEAN CORPUSCULAR VOLUME [2]: 70.13 fL | MONOCYTE [2]: 2.1% | NEUTROPHIL [2]: 12.53% | PLATELET COUNT [2]: 1056.67 x10E3/uL | ALANINE AMINOTRANSFERASE [2]: 41.33 u/L | ALBUMIN [2]: 4.07 G/DL | ALKALINE PHOSPHATASE [2]: 603.33 u/L | ASPARTATE AMINOTRANSFERASE [2]: 80 u/L | BLOOD UREA NITROGEN [2]: 14.67 mg/dL | CARBON DIOXIDE [2]: 43 mmol/L | CHLORIDE [2]: 104 MEQ/L | CHOLESTEROL [2]: 88.33 mg/dL | CREATINE PHOSPHOKINASE [2]: 391.67 u/L | CREATININE [2]: 0.47 mg/dL | GLUCOSE [2]: 156 mg/dL | LIPASE [2]: 10.67 u/L | PHOSPHORUS [2]: 9.03 mg/dL | POTASSIUM [2]: 6.1 MEQ/L | SODIUM [2]: 145.67 MEQ/L | TOTAL BILIRUBIN [2]: 0.37 mg/dL | TOTAL PROTEIN [2]: 6.53 G/DL | URIC ACID [2]: 0.5 mg/dL | ABSOLUTE BASOPHIL [3]: 73.3 cells/µL | ABSOLUTE EOSINOPHIL [3]: 60 cells/µL | ABSOLUTE LYMPHOCYTE [3]: 12200 cells/µL | ABSOLUTE MONOCYTE [3]: 250 cells/µL | BASOPHIL [3]: 0.5% | EOSINOPHIL [3]: 0.37% | ERYTHROCYTE COUNT [3]: 7.33 x10E6/uL | HEMATOCRIT [3]: 44.3% | HEMOGLOBIN [3]: 14.77 G/DL | LEUKOCYTE COUNT [3]: 14.86 x10E3/uL | LYMPHOCYTE [3]: 81.87% | MEAN CORPUSCULAR HEMOGLOBIN [3]: 20.2 pg | MEAN CORPUSCULAR HEMOGLOBIN CONCENTRATION [3]: 33.33 G/DL | MEAN CORPUSCULAR VOLUME [3]: 60.57 fL | MONOCYTE [3]: 1.63% | NEUTROPHIL [3]: 14.93% | PLATELET COUNT [3]: 1101.67 x10E3/uL | ALANINE AMINOTRANSFERASE [3]: 31.67 u/L | ALBUMIN [3]: 3.83 G/DL | ALKALINE PHOSPHATASE [3]: 430.67 u/L | ASPARTATE AMINOTRANSFERASE [3]: 87 u/L | BLOOD UREA NITROGEN [3]: 14.33 mg/dL | CARBON DIOXIDE [3]: 39 mmol/L | CHLORIDE [3]: 104 MEQ/L | CHOLESTEROL [3]: 66 mg/dL | CREATINE PHOSPHOKINASE [3]: 441.67 u/L | CREATININE [3]: 0.7 mg/dL | GLUCOSE [3]: 125.67 mg/dL | LACTATE DEHYDROGENASE [3]: 397.67 u/L | LIPASE [3]: 12.33 u/L | PHOSPHORUS [3]: 9.87 mg/dL | POTASSIUM [3]: 5.93 MEQ/L | SODIUM [3]: 145 MEQ/L | TOTAL BILIRUBIN [3]: 0.37 mg/dL | TOTAL PROTEIN [3]: 6.27 G/DL | URIC ACID [3]: 0.67 mg/dL | ABSOLUTE BASOPHIL [4]: 23.3 cells/µL | ABSOLUTE EOSINOPHIL [4]: 50 cells/µL | ABSOLUTE LYMPHOCYTE [4]: 6060 cells/µL | ABSOLUTE MONOCYTE [4]: 170 cells/µL | BASOPHIL [4]: 0.3% | EOSINOPHIL [4]: 0.67% | ERYTHROCYTE COUNT [4]: 6.67 x10E6/uL | HEMATOCRIT [4]: 46.03% | HEMOGLOBIN [4]: 14.2 G/DL | LEUKOCYTE COUNT [4]: 8.35 x10E3/uL | LYMPHOCYTE [4]: 72.8% | MEAN CORPUSCULAR HEMOGLOBIN [4]: 21.33 pg | MEAN CORPUSCULAR HEMOGLOBIN CONCENTRATION [4]: 30.87 G/DL | MEAN CORPUSCULAR VOLUME [4]: 69.1 fL | MONOCYTE [4]: 2.07% | NEUTROPHIL [4]: 23.9% | PLATELET COUNT [4]: 1110.33 x10E3/uL | ALANINE AMINOTRANSFERASE [4]: 48.33 u/L | ALBUMIN [4]: 4.07 G/DL | ALKALINE PHOSPHATASE [4]: 498.67 u/L | ASPARTATE AMINOTRANSFERASE [4]: 85.67 u/L | BLOOD UREA NITROGEN [4]: 18.67 mg/dL | CARBON DIOXIDE [4]: 41.67 mmol/L | CHLORIDE [4]: 105 MEQ/L | CHOLESTEROL [4]: 71.67 mg/dL | CREATINE PHOSPHOKINASE [4]: 568.67 u/L | CREATININE [4]: 0.6 mg/dL | GLUCOSE [4]: 196 mg/dL | LIPASE [4]: 199.67 u/L | PHOSPHORUS [4]: 9.2 mg/dL | POTASSIUM [4]: 5.77 MEQ/L | SODIUM [4]: 147.67 MEQ/L | TOTAL BILIRUBIN [4]: 0.43 mg/dL | TOTAL PROTEIN [4]: 6.67 G/DL | URIC ACID [4]: 0.6 mg/dL | ABSOLUTE BASOPHIL [5]: 26.7 cells/µL | ABSOLUTE EOSINOPHIL [5]: 26.7 cells/µL | ABSOLUTE LYMPHOCYTE [5]: 7530 cells/µL | ABSOLUTE MONOCYTE [5]: 170 cells/µL | BASOPHIL [5]: 0.27% | EOSINOPHIL [5]: 0.33% | ERYTHROCYTE COUNT [5]: 6.8 x10E6/uL | HEMATOCRIT [5]: 46.17% | HEMOGLOBIN [5]: 14.17 G/DL | LEUKOCYTE COUNT [5]: 9.18 x10E3/uL | LYMPHOCYTE [5]: 82.07% | MEAN CORPUSCULAR HEMOGLOBIN [5]: 20.87 pg | MEAN CORPUSCULAR HEMOGLOBIN CONCENTRATION [5]: 30.73 G/DL | MEAN CORPUSCULAR VOLUME [5]: 67.93 fL | MONOCYTE [5]: 1.87% | NEUTROPHIL [5]: 15% | PLATELET COUNT [5]: 1523.67 x10E3/uL | ALANINE AMINOTRANSFERASE [5]: 40.67 u/L | ALBUMIN [5]: 4.2 G/DL | ALKALINE PHOSPHATASE [5]: 613.33 u/L | ASPARTATE AMINOTRANSFERASE [5]: 74.67 u/L | BLOOD UREA NITROGEN [5]: 17 mg/dL | CARBON DIOXIDE [5]: 40.67 mmol/L | CHLORIDE [5]: 107.33 MEQ/L | CHOLESTEROL [5]: 84.33 mg/dL | CREATINE PHOSPHOKINASE [5]: 393 u/L | CREATININE [5]: 0.53 mg/dL | GLUCOSE [5]: 174.33 mg/dL | LIPASE [5]: 199.33 u/L | PHOSPHORUS [5]: 10.1 mg/dL | POTASSIUM [5]: 6.07 MEQ/L | SODIUM [5]: 149.33 MEQ/L | TOTAL BILIRUBIN [5]: 0.4 mg/dL | TOTAL PROTEIN [5]: 6.73 G/DL | URIC ACID [5]: 0.87 mg/dL | ABSOLUTE BASOPHIL [6]: 52 cells/µL | ABSOLUTE EOSINOPHIL [6]: 40 cells/µL | ABSOLUTE LYMPHOCYTE [6]: 9620 cells/µL | ABSOLUTE MONOCYTE [6]: 200 cells/µL | BASOPHIL [6]: 0.42% | EOSINOPHIL [6]: 0.34% | ERYTHROCYTE COUNT [6]: 7.05 x10E6/uL | HEMATOCRIT [6]: 43.9% | HEMOGLOBIN [6]: 14.6 G/DL | LEUKOCYTE COUNT [6]: 12.04 x10E3/uL | LYMPHOCYTE [6]: 79.76% | MEAN CORPUSCULAR HEMOGLOBIN [6]: 20.7 pg | MEAN CORPUSCULAR HEMOGLOBIN CONCENTRATION [6]: 33.26 G/DL | MEAN CORPUSCULAR VOLUME [6]: 62.28 fL | MONOCYTE [6]: 1.68% | NEUTROPHIL [6]: 17.28% | PLATELET COUNT [6]: 1124.2 x10E3/uL | ALANINE AMINOTRANSFERASE [6]: 35 u/L | ALBUMIN [6]: 4.04 G/DL | ALKALINE PHOSPHATASE [6]: 405.4 u/L | ASPARTATE AMINOTRANSFERASE [6]: 77.8 u/L | BLOOD UREA NITROGEN [6]: 14 mg/dL | CARBON DIOXIDE [6]: 43.2 mmol/L | CHLORIDE [6]: 103 MEQ/L | CHOLESTEROL [6]: 69.8 mg/dL | CREATINE PHOSPHOKINASE [6]: 325.8 u/L | CREATININE [6]: 0.8 mg/dL | GLUCOSE [6]: 144.4 mg/dL | LACTATE DEHYDROGENASE [6]: 182.2 u/L | LIPASE [6]: 12.2 u/L | PHOSPHORUS [6]: 10.48 mg/dL | POTASSIUM [6]: 6.04 MEQ/L | SODIUM [6]: 147 MEQ/L | TOTAL BILIRUBIN [6]: 0.36 mg/dL | TOTAL PROTEIN [6]: 6.56 G/DL | URIC ACID [6]: 0.66 mg/dL

Source: ChEMBL document CHEMBL3885881, “DrugMatrix”
